Where two headings read alike, the source gives them in different places.
How the values were obtained:
[1] = system: LtP; assay: EPR spin trapping (DMPO): activation of AcEPs by LtP; type: cell-based, Leishmania tarentolae; details: 500 µM compound, 2 × 10^9 LtP/mL, 40 mM DMPO, 15 min, no added iron
Description: To detect the radicals derived from AcEPs in LtP, EPR experiments were performed using DMPO as spin trap. Aliquots of the cell broth were transferred into Sarstedt tubes that were centrifuged (20 °C, 1800× g, 10 min), and the supernatants were discarded. Then the cell pellets were resuspended in PBS and centrifuged again. After removal of the supernatants, the cell pellets were resuspended in a mixture of PBS containing glucose (15 mM), giving a final cell number of 2 × 10^9 LtP/mL. Aliquots (150 µL) were incubated in 1.5 mL Eppendorf tubes with aeration holes. The cells were incubated with DMPO (40 mM) for 5 min at 26 °C, and after addition of 500 µM of the respective substance (Asc, AcEP1117, AcEP1118, AcEP1129, AcEP1130, Ac or AQ), the samples were incubated for additional 15 min at 26 °C under constant agitation (agitation speed: 0.3 s^−1). Control samples containing LtP, LtP and DMSO (1.27%, v/v), or PBS/glucose alone were incubated with 40 mM DMPO under the same conditions. Cell samples containing DMPO that were treated with Asc served as positive control. Samples treated with Ac or AQ were used as negative controls. Subsequently, 50 µL of the samples were aspirated into glass capillaries and transferred in the MD5 resonator of the EPR spectrometer. The samples were measured immediately using the following instrument settings: microwave frequency 9.684 GHz; microwave power 20 mW, modulation frequency 100 kHz; modulation amplitude 2 G; time constant 0.164 s; center field 3449 G; scan rate 71 G/min; sweep width 100 G; scan time 84 s; attenuation 8.93 × 10^5; and scans 3.

[2] = system: axenic Leishmania tarentolae amastigotes (axLtA); assay: MTT viability assay in axenic Leishmania tarentolae amastigotes; type: cell-based
Description: An aliquot of the original LtP culture broth that was equivalent to 108 × 10^6 cells was centrifuged at 2000× g for 10 min (Sorvall RC26 Plus, rotor: SH-3000, Thermo Fisher Scientific, Waltham, MA, USA). The resulting supernatant was discarded, and the cell pellet was resuspended in 10 mL of Schneider’s medium (adjusted to a pH of 4.5 using HCl; containing 50% FCS, 25,000 U/L penicillin, and 25 mg/L streptomycin). The cell suspension was transferred and cultured in a 50 mL TubeSpin bioreactor at 32 °C. Every 3–4 days, the cells were passaged. Therefore, the cell broth was centrifuged at 2000× g for 10 min, and the supernatant was discarded. The cells were resuspended in fresh medium. During the first 14 days, after the culture was started, the cells transformed from the promastigote to the axenic amastigote state (axLtA). Subsequent to this initial period, the axenic amastigotes were passaged every 3–4 days. To determine cell density of the broth, an aliquot of the suspension, usually 1 mL, was transferred into an Eppendorf tube. The cells were then diluted 1:2 up to 1:40 using PBS, depending on the cell density of the broth. An aliquot of 20 µL of this dilution was further diluted 1:2 with a 2% formaldehyde solution (in PBS). Of this final suspension, 10 µL were transferred to each counting chamber of a standard Neubauer chamber (VWR, Wien, Austria). The cells were incubated for 5 min at 25 °C to let them sediment. Photographs of the counting chambers were taken using a light microscope (Lacerta LIS-5 microscope, Lacerta GmbH, Vienna, Austria) with an attached camera. The photos were obtained at a magnification of 100×. Four photos of every counting chamber were taken, resulting in a total of eight photos. The pictures were then analyzed with the Fiji ImageJ (2.0.0) software (Wayne Rasband, National Institutes of Health (NIH), Bethesda, Maryland (MD), USA). The results were averaged giving the final cell number of the culture broth.
Owing to the acidic conditions needed for axLtA (pH 4.5), viability assays with axLtA were carried out using MTT instead of resazurin that is unstable in an acidic environment. Cell suspensions (200 µL) of axLtA (6 × 10^6 parasites/mL) in Schneider’s medium (pH = 4.5), containing 25,000 U/L penicillin, 25 mg/L streptomycin, and 50% FCS were prepared and distributed in 96-well round-bottom microplates. Then compounds were added (leading to a final vehicle concentration of max. 2% DMSO in the wells). Subsequently, five 1:5 serial dilution steps were performed. Control rows were loaded with 200 µL of either Schneider’s medium or axLtA suspension. After incubation at 32 °C for 48 h, 20 µL of MTT solution (in PBS) were added to each well (1 mM final concentration) and incubated for additional 4 h. Then plates were centrifuged at 400× g for 5 min (Hettich Rotina 420, Tuttlingen, Germany), and the supernatant was discarded. DMSO (100 µL) was added to each well and incubated at 32 °C for 10 min. Then the OD at 570 nm and 630 nm was determined using a plate reader (Perkin Elmer Enspire, Rodgau, Germany).
Calculations were carried out using Microsoft Excel (Microsoft). The graphs were created using Origin 6.1 (OriginLab Corporation, Northampton, MA, USA). The half maximal inhibitory concentrations (IC50) were determined from non-linear concentration–response curves using a four-parameter logistic model and expressed as the mean ± standard deviation (SD). Statistically significant differences of p <0.05 were identified using Students t-test.

[3] = Leishmania tarentolae, 48 h, pH 4.5, MTT assay, endpoint at 48 h, 6 × 10^6 axLtA/mL, pH 4.5, read-out: IC50 (µM) Mean ± SD axLtA

| SMILES | DMPO spin adduct formation in LtP (EPR) [1] | IC50 [2, 3] | IC50 ([2]; MTT assay, endpoint at 48 h, 6 × 10^6 axLtA/mL, pH 4.5, read-out: IC50 (µM) Mean ± SD axLtA) | IC50 ([2]; Leishmania tarentolae, 48 h, pH 4.5, read-out: IC50 (µM) Mean ± SD axLtA, MTT assay, endpoint at 48 h, 6 × 10^6 axLtA/mL, pH 4.5) |
| --- | --- | --- | --- | --- |
| CC12OOC(C)(c3ccccc31)c1ccccc12 [AcEP1118, 9,10-dimethyl-9,10-dihydro-9,10-epidioxidoanthracene] | a moderate intensity DMPO spin adduct was observed | 6.43 ± 0.4 µM | – | – |
| c1ccc2c(c1)C1OOC2c2ccccc21 [AcEP1117, 9,10-dihydro-9,10-epidioxidoanthracene] | no spin adducts were observed | 56.4 ± 15 µM | – | – |
| O=C1c2ccccc2C(=O)c2ccccc21 [AQ, anthraquinone, reference compound] | neither Ac nor AQ resulted in detectable DMPO spin adducts | 369 ± 9.81 µM | – | – |
| N=C(N)c1ccc(OCCCCCOc2ccc(C(=N)N)cc2)cc1 [Pen, pentamidine, reference compound] | – | < 1 µM | 0.67 ± 0.31 µM | – |
| CC12OOC(c3ccccc31)c1ccccc12 [AcEP1129, 9-methyl-9,10-dihydro-9,10-epidioxidoanthracene] | high intensity EPR spectra of spin adducts were observed | 3.29 ± 0.13 µM | – | – |
| c1ccc2cc3ccccc3cc2c1 [Ac, anthracene] | neither Ac nor AQ resulted in detectable DMPO spin adducts | – | – | > 400 µM |
| CCc1ccc2c(c1)C1OOC2c2ccccc21 (centres unmarked) [AcEP1130, 2-ethyl-9,10-dihydro-9,10-epidioxidoanthracene] | no spin adducts were observed | 15.3 ± 0.31 µM | – | – |

Source: publication PMC6100073, “Activation of Anthracene Endoperoxides in Leishmania and Impairment of Mitochondrial Functions” (Molecules : A Journal of Synthetic Chemistry and Natural …, 2018)
